Data from patent US20110224197A1, “PYRIMIDINES AND PYRIDINES USEFUL AS INHIBITORS OF PROTEIN KINASES” (Vertex Pharmaceuticals Incorporated, priority 2008, published 2011).

Tested on: E16 rat hippocampal or cortical neurons
Assay: Axonal Branching Assay
Format: cell-based
Experimental: Compounds are tested for the ability to enhance axonal branching in E16 rat hippocampal or cortical neurons.
1 mg/ml stock of PDL is diluted into 100 μg/ml in DI water. The glass coverslips are coated for at least 1 hour at 37° C. prior to doing the dissection. PDL is aspirated and the plates are rinsed with PBS and air-dried in hood.
Cortical or hippocampal lobes are combined with 9 mL of Base media (Neurobasal+Pen/Strep) and put on ice. 1 mL of 10× trypsin solution is added and the mixture is swirled gently. The tissue is then digested via incubation in a 37° C. waterbath for 20 minutes. After 20 minutes, 10 μl/ml DNase (100 μL DNase) is added and the mixture is incubated for another 5 minutes.
The cells are spun at 1000 rpm for 1 minute. The enzyme solution is then removed without removing any of the brain fragments sitting on the bottom. […] The cells are counted in a hemacytometer and seeded at 5000-10000 cells/well in a 24 well plate with glass coverslip inserts coated with PDL. […]
Images are captured at 10× and 20× on an upright microscope and axonal branching is determined by quantification of area under threshold fluorescence of neurofilament Alexa 488 per cell. Dendritic branching is determined by quantification of area under threshold fluorescence of MAP2 Alexa 568 per cell. Alternatively, branching can be determined by manual counting of branch points per cell. […]

Cc1nc(-c2ccccc2Cl)nc(Nc2n[nH]c3ncc(F)cc23)c1C [Compound I-37, N-(2-(2-chlorophenyl)-5,6-dimethylpyrhnidin-4-yl)-5-fluoro-1H-pyrazolo[3,4-b]pyridin-3-amine]
axonal and dendritic branching (10 nM, 7 days): increased axonal and dentritic branching
axon growth (concentrations shown to induce β-catenin): axon growth was inhibited
